According to publication PMC6567057, “Pharmacokinetic, metabolic stability, plasma protein binding and CYP450s inhibition/induction assessment studies of N-(2-pyridylmethyl)-2-hydroxiymethyl-1-pyrrolidinyl-4-(3-chloro-4-methoxy-benzylamino)-5-pyrimidine-carboxamide as potential type 5 phosphodiesterase inhibitors” (Animal Cells and Systems, 2019):

How the values were obtained:
rat plasma proteins = experiment: Plasma protein binding by equilibrium dialysis (rat); type: in vitro ADME, Sprague–Dawley rat; conditions: rat plasma, equilibrium dialysis, n = 3
Method: (§1) The phosphate buffer (100 mM) and sodium hydroxide solution (1.0 M) were prepared in deionized water. […] PPB was determined by equilibrium dialysis method. An aliquot (150 μL) of NHPPC spiked plasma and phosphate buffer (pH 7.4) was added into the donor side and the receiver side of each designated well. The plate was covered with adhesive sealing film to prevent evaporation and placed in a water-bath shaker kept at 37°C for 6 h with a rate of 50 rpm. […] At the end of 6 h, aliquots were taken from each side of each well (n = 3) and kept in a −20°C freezer prior to analysis. The stability, device recovery and PPB were calculated using the following equations: Remaining at 6 h (%)=C6h/C0h×100%, Device recovery (%)=CDonor+CReceiver/C6h×100%, PPB (%)=CDonor−CReceiver/CDonor×100%.

dog plasma proteins = experiment: Plasma protein binding by equilibrium dialysis (dog); type: in vitro ADME, Beagle dog; conditions: dog plasma, equilibrium dialysis, n = 3
Method: as §1

human plasma proteins = experiment: Plasma protein binding by equilibrium dialysis (human); type: in vitro ADME; conditions: human plasma, equilibrium dialysis, n = 3
Method: as §1

Q: CC(=O)CC(c1ccccc1)c1c(O)c2ccccc2oc1=O (stereo not drawn) [Warf, reference compound] was tested. Which “Mean device recovery %” value (rat plasma proteins) did it give?
A: 107.9 ± 0.03%

Q: And the “Mean device recovery %” value (dog plasma proteins)?
A: 100.7 ± 0.49%

Q: And the “Mean device recovery %” value (human plasma proteins)?
A: 107.0 ± 0.25%
